Experiments:
[1] = tested on: B16F10 murine melanoma cells; assay: Dual flank B16F10 model, injected and contralateral tumors; assay type: in vivo, C57BL/6 mice
From the text: In addition, activation of the STING pathway induces the upregulation of immune pathway checkpoints, which subsequently reduce T-cell-mediated cell killing, and thus moderate the effects of STING pathway agonism as a therapeutic rationale (Cell Rep. 2015 May 19; 11(7):1018-30). To test both hypotheses, C57BL/6 mice were inoculated subcutaneously with 1×10^6 and 5×10^5 B16F10 murine melanoma cells into right and left flank of mice, respectively (n=5 mice per group). Seven, ten, and thirteen days post-inoculation, the tumor at right flank were injected intratumorally with exosomes, 20 μg of free 3-3 cAIMPdFSH, 0.1 μg of free 3-3 cAIMPdFSH, or 0.1 μg 3-3 cAIMPdFSH loaded in PTGFRN-overexpressing exosomes, with a control antibody (α-IgG; 10 mg/kg; BioLegend, Catalog #400559, Clone RTK3758) or an antagonistic antibody against PD-1 (a PD-1; 10 mg/kg; BioLegend, Catalog #114111, Clone RMPI-14). Antibodies were injected intraperitoneally. Tumor volumes were measured daily until day 21, and animals were sacrificed when tumor volume reached 2000 mm^3.

B16F10 lung metastases = B16F10 lung metastases after intratumoral treatment of the subcutaneous tumor; assay type: in vivo, C57BL/6 mice; settings: 20 μg intratumoral
From the text: Activation of the STING pathway promotes antigen presentation and induces a durable T-cell response, as shown in Examples 11 and 12. Thus, the immune memory response induced by EXOSTING™ may be sufficient to prevent tumor metastasis after a local administration in a primary tumor. To test this hypothesis, exosomes purified from HEK293SF cells overexpressing PTGFRN were loaded with the cyclic dinucleotide 3-3 cAIMPdFSH as described in Example 1. C57BL/6 mice were inoculated subcutaneously with 1×10^6 B16F10 melanoma cells on day zero and challenged with an additional tail vein injection of 1×10^5 B16F10 melanoma cells to seed lung metastases (n=8 mice per group). Five, eight, and eleven days post-inoculation the mice were injected intratumorally at the subcutaneous tumor with PBS, 20 μg 3-3 cAIMPdFSH, 120 ng 3-3 cAIMPdFSH, or either 120 ng, 12 ng, or 1.2 ng 3-3 cAIMPdFSH loaded in PTGFRN-overexpressing exosomes (Exo STING Agonist). […] Lungs from all mice were harvested, imaged, and counted for metastases. […] As little as 12 ng of Exo STING Agonist prevented lung metastasis to the same extent as 20 μg STING Agonist (FIGS. 46B and 47).

[2] = tested on: CD8+ T-cells, macrophages, and dendritic cells; assay: Live CD45+ cell populations in B16F10 tumors 24 hours post-injection; assay type: in vivo, mice; settings: 20 μg intratumoral
Protocol: Constitutive activation of the STING pathway results in robust pro-inflammatory signaling and may be toxic to cells and tissues (N Engl J Med. 2014 Aug. 7; 371(6): 507-518). Non-selective delivery of STING agonists in a tumor microenvironment may result in a robust IFNβ response, but if response is too strong or originates in undesired cell populations, effector cells such as CD8^+ T-cells may be killed or otherwise attenuated. B16F10 melanoma tumors were injected with PTGFRN-overexpressing exosomes labeled with Alexa Fluor™ 488 and removed one hour post-injection. Tumor-infiltrating lymphocytes were purified and measured for fluorescence at 488 nm to track exosome uptake. Only ˜20% of T-cells engulfed exosomes, while ˜90% and ˜70% of macrophages and dendritic cells, respectively, engulfed exosomes (FIG. 51A). […] 24 hours post-injection, the tumors were isolated, homogenized, and live CD45^+ cell populations were counted. […] Non-selective delivery of high doses of STING agonists therefore may attenuate desirable immune stimulatory responses.

[3] = tested on: ovalbumin (OVA)-reactive T-cells; assay: OVA-reactive memory T-cells by tetramer flow cytometry; assay type: in vivo, C57BL/6 mice; settings: six days
Protocol: STING pathway agonism in dendritic cells enhances antigen presentation, IFNβ production, and recruits CD8+ memory T-cells to elicit a durable adaptive immune response. To determine whether Exo STING could induce a memory T-cell response to a defined antigen, an antigen-specific T-cell response study was carried out using purified ovalbumin (OVA). C57BL/6 mice were injected intraperitoneally with 200 μg OVA mixed with either PBS, 20 μg ML RR-S2, 0.2 μg ML RR-S2, or 0.2 μg ML RR-S2 loaded in PTGFRN-overexpressing exosomes (n=4-10 mice per group). Six days post-injection, spleens and mesenteric lymph nodes were collected, homogenized to a single-cell suspension, and live lymphocytes were enriched by density centrifugation. Isolated lymphocytes were analyzed by flow cytometry by measuring binding to immobilized tetrameric MHC class I bound to the OVA peptide SIINFEKL and phycoerythrin (PE) (iTAg Tetramer/PE—H-2 OVA; MBL®, Code #T03000). OVA-reactive memory T-cells were quantified by gating on PE, CD44, and CD8 positivity.

[4] = tested on: B16F10 murine melanoma cells; assay: B16F10 melanoma tumor growth, intratumoral injection; assay type: in vivo, C57BL/6 mice; settings: for tumor growth compared to PBS: day 25
Protocol: To test this hypothesis, C57BL/6 mice were inoculated subcutaneously with 5×10^5 B16F10 murine melanoma cells (n=5 mice per group). Five, eight, and eleven days post-inoculation the mice were injected intratumorally with PBS, 20 μg ML RR-S2, 0.2 μg ML RR-S2, or 0.2 μg ML RR-S2 loaded in PTGFRN-overexpressing exosomes Tumor volumes were measured daily until day 39, and animals were sacrificed when tumor volume reached 2000 mm^3.

[5] = tested on: IFNβ, CXCL9, CXCL10, IFNγ gene expression; serum cytokines; assay: Cytokine levels after single intratumoral dose in B16F10 tumor-bearing mice; assay type: in vivo, C57BL/6 mice; settings: 20 μg single intratumoral dose, four hours post-injection
Protocol: Four groups of C57BL/6 mice (3-4 mice per group) were inoculated subcutaneously with 5×10^5 B16F10 tumor cells. Eight days post-inoculation the mice were injected with a single intratumoral dose of PBS, 20 μg of free ML RR-S2 CDA, 0.2 μg of free ML RR-S2 CDA, or 0.2 μg of ML RR-S2 CDA loaded in PTGFN-overexpressing exosomes (exo ML RR-S2 CDA). Four hours post-injection the tumors, draining lymph nodes, spleens, and serum were collected and cytokine levels were measured.
To confirm that the effects observed in FIGS. 20-23 were applicable to other STING agonists, B16F10 subcutaneous tumor-bearing mice were injected with 20 μg of free 3-3 cAIMPdFSH, 0.2 μg of free 3-3 cAIMPdFSH, or 0.2 μg of 3-3 cAIMPdFSH loaded in PTGFRN-overexpressing exosomes (exo 3-3 cAIMPdFSH).

| Structure (SMILES) | injected tumor growth ([1]; 0.1 μg free + IgG or Anti-PD1) | contralateral (not injected) tumor ([1]; 20 μg free) | contralateral tumor reduction with anti-PD1 ([1]; 20 μg free + anti-PD-1 10 mg/kg IP) | injected tumor growth ([1]; 20 μg free, regardless of anti-PD1) | lung lesions by histology (B16F10 lung metastases) | lung metastases compared to PBS (B16F10 lung metastases) | CD8+ T-cells, macrophages, and dendritic cells in tumor [2] | OVA-reactive T-cells in spleen and mesenteric lymph nodes ([3]; 0.2 μg IP with 200 μg OVA) | OVA-reactive T-cells in spleen and mesenteric lymph nodes ([3]; 20 μg IP with 200 μg OVA) | tumor growth compared to PBS ([4]; 0.2 μg intratumoral days 5, 8, 11) | complete response (undetectable tumors at the site of inoculation) ([4]; 20 μg intratumoral) | tumor growth compared to PBS ([4]; 20 μg intratumoral days 5, 8, 11) | IFNβ gene expression levels in the tumor [5] |
| --- | --- | --- | --- | --- | --- | --- | --- | --- | --- | --- | --- | --- | --- |
| Nc1ncnc2c1ncn2[C@@H]1O[C@@H]2COP(=O)(S)O[C@H]3[C@@H](F)[C@H](n4cnc5c(=O)[nH]cnc54)O[C@@H]3COP(O)(=S)O[C@H]2[C@H]1F (stereo partly shown) [3-3 cAIMPdFSH, 3′3′-cAIMPdFSH] | moderately potentiated | significant tumor reduction | more strengthened with anti-PD1 combination | Almost completely eliminated | significant amount of lung lesions inside of lung | dramatically reduced |  |  |  |  |  |  |  |
| Nc1ncnc2c1ncn2[C@@H]1O[C@@H]2COP(O)(=S)O[C@@H]3C(O)[C@@H](COP(O)(=S)O[C@H]2[C@H]1O)O[C@H]3n1cnc2c(N)ncnc21 (stereo partly shown) [ML RR-S2 CDA] |  |  |  |  |  |  | dramatically reduced compared to the other groups | no activity in the spleen and only a modest response in mesenteric lymph nodes | A greater proportion of OVA-reactive T-cells | moderately potentiated | three out of five | almost completely eliminated | higher than the 0.2 μg free STING agonist and PBS groups |

— patent US20210322327A1, “EXTRACELLULAR VESICLES COMPRISING STING-AGONIST” (Codiak BioSciences, Inc., priority 2018, published 2021)
